Experimental data as given in a melting point compilation (Tetko et al.; mined from patent text by program, amines drawn as free bases though some values may be those of a salt).

SMILES	melting point
C#Cc1ccc(C(=O)OC(C)(C)C)cc1	71.5 to 72 °C
Cc1c(-c2cccnc2)n(CCOc2ccc(C(=O)O)cc2)c2ccccc12	190 to 193 °C
Nc1c(Cl)cc(C(=O)OC2CCN(CCCC(=O)c3ccc4[nH]c(=O)[nH]c4c3)CC2)c2c1CCO2	273 °C
O=C(CCCCCCNC(=O)c1cc2cccc3c2n1CCC3)NO	160 to 161 °C
COc1ccc(OCC(F)(F)F)cc1N1CCN(CCCNC(=O)c2c(-c3ccccc3)noc2C)CC1	125 °C
CC(=O)CN1CCN(C(=O)Cn2c(=O)sc3ncc(Cl)cc32)CC1	191 to 193 °C
CCCCOC(=O)C(OC(=O)C(C)C)OC(=O)N1CCN(c2cc3c(cc2F)c(=O)c(C(=O)O)cn3CC)CC1 (configuration not stated)	152 to 160 °C
CCOC(=O)COc1cccc(C2C(C(=O)OCC)=C(C)NC(C)=C2C(=O)OCC)c1	108 °C
O=C(O)C[C@H](NC(=O)OCc1ccccc1)C(=O)Nc1cc(Cc2n[nH]c(=O)c3ccccc23)ccc1F	188 to 190 °C
Nc1cc2c(Nc3ccc(F)c(Cl)c3)ncnc2cc1OCC1CCCO1 (configuration not stated)	162 to 164 °C
CCOc1ccc(C(c2ccc(C(C)(C)C)cc2)C(CC)[N+](=O)[O-])cc1 (configuration not stated)	95 to 97 °C
CCOC(=O)CCc1cn(Cc2cccc(C(=O)Nc3cccnc3)c2)nc1-c1ccccc1	111 to 112 °C
OCCOCCNc1ncncc1Cc1ccccc1	86 to 87 °C
Nc1nc2ccccc2c2c1nc(CN1CCOCC1)n2Cc1ccccc1	> 300 °C
OC1CSC(Oc2cccn3ncnc23)C(O)C1O (configuration not stated)	155 °C
O=C(NC(=O)c1c(Cl)cccc1Cl)Nc1ccc(-c2ccccc2)cn1	221 to 231 °C
CCOC(=O)COc1ccc2c(c1[N+](=O)[O-])C(=O)CC2	137 to 139 °C
C=CCNc1nc(N(CC=C)CC=C)nc2ccc([N+](=O)[O-])cc12	167 to 168 °C
CCCC=Cc1c(C(C)C)nc(C(C)C)c(CO)c1-c1ccc(-c2ccccc2)cc1	50 to 52 °C
Cc1cccc(Nc2cc(Cl)nc(SCC(=O)NC3CCCCC3)n2)c1C	156 to 158 °C
COc1cc2c(c(OC)c1OC)C(CN1CCC(c3noc4cc(F)ccc34)CC1)=C2	141 to 143 °C
CCOC(=O)Nc1cc(Cl)nc(NC(=O)OCC)n1	153 to 154 °C
COc1ccc(CNc2nc(N3CCn4ccnc4C3)ncc2C(=O)NCC2CN(C)CCO2)cc1Cl (configuration not stated)	132 to 134 °C
CC(=O)c1ccc(C(=O)Nc2ccc(C(C)(C)C)cc2)cc1	183 to 184 °C
Nc1ccc(C(=O)c2ccccc2)cc1COC1CCCCO1 (configuration not stated)	164 °C

SMILES	melting point
O=C(O)c1cn(CC2CCCC2)c2cc(Cl)ccc12	181 to 184 °C
CC(=O)Oc1cc2c(c3ccccc13)N(C(=O)OC(C)OC(C)=O)c1ccccc1S2 (configuration not stated)	76 to 78 °C
COc1cc2c(cc1[N+](=O)[O-])CCN(CCCCl)C(=O)C2	127 to 128 °C
O=C(c1ccccc1)c1ccc(OCCCOc2ccc(C(=O)c3ccccc3)cc2)cc1	146 to 148 °C
CCCC(=CC=CC(C)=CC(=O)O)c1cc(C(C)(C)C)cc(C(C)(C)C)c1	143 to 144 °C
O=C1N(Cc2ccccn2)c2ccc(Br)cc2C12COc1cc3c(cc12)OCCO3 (configuration not stated)	> 250 °C
COCC1CN(c2ccc3ccc(OC)cc3c2)C(=O)O1 (configuration not stated)	95.5 to 96.5 °C
CCOC(=O)c1nn(-c2ccc(Cl)cc2Cl)c(-c2ccc(Cl)cc2)c1C	124 °C
Fc1ccc(Cn2c(NC3CCN(CCNc4nccs4)C3)nc3ccccc32)cc1 (configuration not stated)	127 °C
O=C(O)c1cccc(SCc2c(O[C@H](Cn3ccnc3)c3ccccc3)ccc3c2CCCC3=O)c1	225 °C
CCCCCCn1c(=O)[nH][nH]c1=O	144 to 145 °C
CC(C)(C)NC(=O)[C@@H]1CCCN1C(=O)[C@@H](O)[C@H](Cc1ccccc1)NC(=O)[C@H](CC(N)=O)NC(=O)COc1ccc(NC(=O)OCc2ccccc2)cc1	103 to 105 °C
CC(C)(C)OC(=O)N1CCN(C(=O)c2ccccc2)CC1	106 °C
CC(c1ccccc1)C(C(=O)c1ccc(Cl)cc1)n1cncn1 (configuration not stated)	163 to 165 °C
CC(=O)Oc1ccc(C(=O)Nc2cccc(OCc3cncc4ccccc34)c2)cc1C(C)(C)C	83 to 86 °C
O=S1(=O)N=C(NC2CCN(Cc3ccccc3)C2)Nc2ccc(Cl)cc21 (configuration not stated)	208 to 210 °C
COc1ccc(CC(=O)O)c(C(C)=O)c1	115 to 116 °C
COc1ccccc1-c1ncc(-c2nnn[nH]2)c(=O)[nH]1	282 to 283 °C
O=[N+]([O-])c1cnc(Sc2n[nH]c(-c3ccccc3)n2)s1	155 to 157 °C
CC(c1ccc2[nH]nc(S(=O)(=O)c3cccc4ccccc34)c2c1)N1CCN(C)CC1 (configuration not stated)	183 to 185 °C
CCOC(=O)C(=O)c1csc(NC(=O)Nc2ccc(Cl)cc2)n1	230 to 234 °C
CSCCNC(=O)c1sc(-c2cccnc2)nc1Cl	97 to 98 °C
O=C(Cc1c(-c2cccnc2)c2cc(CN3CCN(c4ccccc4)CC3)c(Cl)cc2oc1=O)Nc1ccc(Cl)cc1C(F)(F)F	214 to 216 °C
CCSC(C)(C)C(=O)CC(=O)Nc1cc(NC(=O)C(CC)Oc2ccc(C(C)(C)CC)cc2C(C)(C)CC)ccc1OC (configuration not stated)	65 to 67 °C
COc1ccc2c(c1)NC(=O)C2=Cc1[nH]c2c(c1CCC(=O)O)CCCC2	263 to 266 °C

SMILES	melting point
COc1ccc(S(=O)(=O)N(CCC(C)C)CC(O)C(Cc2ccccc2)NC(=O)C(C)CS(C)(=O)=O)cc1 (configuration not stated)	125 to 129 °C
CCCCn1c2ccccc2c2cc(C(=O)O)ncc21	182 to 184 °C
CC1Oc2ccc(CN3CCN(c4ccc(C#N)cc4)CC3)cc2NC1=O (configuration not stated)	266 to 268 °C
CCc1ccc(C=NNC(=O)c2ccc(O)cc2)o1	60.5 °C
O=C(Nc1cccc2ccccc12)c1ccn2c1CSC2c1cccnc1 (configuration not stated)	136 °C
Nc1cccc(NCCO)c1[N+](=O)[O-]	129 °C
CC(C)(C)OC(=O)C(Cc1ccccc1)NC(=O)c1ccc2c(Cl)cnc(Cl)c2c1 (racemic)	156 to 157 °C
Cc1cccc(Cl)c1N(C)S(=O)(=O)c1nc2scc(C)n2n1	178 to 180 °C
Cc1c(-c2ccccc2)oc2c(C(=O)OCCN3CCOCC3)cc(Cl)cc2c1=O	68 to 73 °C
CN1C(=O)CC[C@]2(C)c3ccc(Sc4nc5c(OC(F)(F)F)cccc5s4)cc3CC[C@@H]12	168 to 173 °C
Cc1oc(-c2ccccc2)nc1COc1ccc(COc2ccc(CC(=O)O)cc2)cc1	166 to 167 °C
COc1cccc(C(C)(C)C(=O)O)c1	46 to 47 °C
CCCc1ncc(C=CC=CC(=O)OCC)s1	52 °C
O=Cc1ccc(N2CCC3(CC2)OCCO3)c(Br)c1	63 to 64 °C
O=C(NCCc1cccc2ccc(OC3CCCCC3)cc12)C1CC1	153 to 155 °C
CCOC(=O)C(Cc1cc2ccccc2[nH]c1=O)NC(=O)c1ccc(OC)cc1 (configuration not stated)	206 to 208 °C
COc1ccccc1C(=O)NCCc1ccc(-c2ccc(O)cc2)cc1	118 °C
CCC(=O)Nc1ccc(OC)c(=O)cc1	116 to 118 °C
O=C(Nc1cccc(NC(=O)C(F)(F)C(F)(F)F)c1)Nc1ccc(Cl)c(Cl)c1	195 to 197 °C
Cc1cccc(Nc2cc(Cl)nc(SCC(=O)NC(C)C)n2)c1C	156 to 158 °C
CC(C)c1cc(Oc2ccccc2)cc(C(C)C)c1N	71 to 72 °C
COC(=O)Cc1c(Br)csc1Br	38.5 to 39 °C
CSc1nc(=O)n(Cc2ccccc2)c2ncn(COCc3ccccc3)c12	194 to 195 °C
CC(C)(C)OC(=O)N[C@H]1CCN(C(=O)OCc2ccccc2)C1	124 to 125 °C
CCN(CC)CCNc1nc2ccccc2n(-c2ccc(Cl)cc2)c1=O	96 to 98 °C

SMILES	melting point
O=S(=O)(O)c1cccc(NCc2cccc(C(F)(F)F)c2)c1	> 275 °C
O=[N+]([O-])c1c(C=NO)cccc1OCc1ccccc1	141 to 142 °C
CC(C)(C)C(=O)OCC(COC(=O)C(C)(C)C)OCn1cnc2c(=O)[nH]c(N)nc21	230 to 232 °C
CCCN(Cc1ccco1)S(=O)(=O)c1ccc(OC)c2oc(C(C)=O)cc12	109 to 111 °C
COC(=O)c1sc2ccccc2c1O	109 to 110 °C
CC(=O)N(C)c1cc(-c2ccnc3c(C(=O)c4cccs4)cnn23)ccc1Cl	191 to 193 °C
CCOC(=O)C1=C(C)NC(CC)=C(C(=O)OCC)C1c1cc([N+](=O)[O-])ccc1OCCCCCl (configuration not stated)	147 to 149 °C
Nc1ccccc1Cn1cc(C(F)(F)F)ccc1=O	83.4 to 85.3 °C
CC(CN(C)C)Oc1ccccc1CC(=O)N1CC2C(C1)C(c1ccccc1)(c1ccccc1)CCS2=O (racemic)	150 °C
COc1ccc(OCc2ccc3ccccc3n2)cc1C1(c2ccccc2)CC2CCC1C2 (configuration not stated)	138 to 139 °C
O=C(Cc1c(-c2ccccc2)c2cc(CN3CCNCC3)c(Cl)cc2oc1=O)Nc1ccc(Cl)cc1C(F)(F)F	237 to 242 °C
CC(C)Nc1nc2c(F)c(F)c(Cl)cc2[nH]1	175 to 178 °C
CC(CNC(=O)c1ccc(-c2ccc(Cl)cc2)cc1F)c1ccc(CN2CCCC2)cc1 (configuration not stated)	119 to 121 °C
CC(=O)NC(C)COc1c(C)cccc1C (configuration not stated)	85 to 85.8 °C
COC1=CC(=O)C2=C(CC=CC2)C1=O	172 °C
O=C1NC(=O)C(Cc2ccc(OCCC3OCCO3)cc2)S1 (configuration not stated)	102 to 104 °C
Oc1ccc(Cl)c2c1CCCC2	58 to 59 °C
CCN(C1CCN(C)CC1)S(=O)(=O)c1ccc(Nc2nccc(Nc3ccc(F)cc3)n2)cc1	154 °C
CCCCCS(=O)(=O)NC(=O)CCc1cc(C2CC2)nn1Cc1ccc(C(F)(F)F)cc1Cl	152 to 154 °C
CCCC(C)(CCl)c1cc(Cl)nnc1Cl (configuration not stated)	68 to 69 °C
Cc1nc2c(n1C(=O)OC(C)(C)C)CCCC2=O	126 °C
CCCCc1ccc2oc(=O)c(=O)oc2c1	88 to 93 °C
